From patent publication US10738094B2, “Peptides and combination of peptides for use in immunotherapy against ovarian cancer and other cancers” (immatics biotechnologies GmbH, priority 2015, dated 2020)

Key:
HLA-A*02:01 = HLA-A*02:01 (Homo sapiens, UniProt P04439, D140Y/D185E/D98H/E176V/E277Q/G131W/G231S/I119V/I121R/I166T/I218V/L300P/L318F/N151K/N90K/P208A/P217A/Q86G/Q94H/R138H/R169H/T345S); experiment: MHC binding assay (UV-ligand exchange, beta2m ELISA); settings: binding to HLA-A*02:01 ranged by peptide exchange yield (UV-ligand exchange, β2m ELISA)
Summary of the method: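 Stabilised complexes were quantified via their β2m light chain: 100-fold-diluted monomers bound to streptavidin plates, then HRP anti-β2m at 2 ug/ml for 1 h at 37° C., TMB read at 450 nm. The value is the yield of UV-induced exchange of a photocleavable peptide for the candidate.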

CD8+ T cells = experiment: In vitro immunogenicity for MHC class I presented peptides (priming of CD8+ T cells with aAPCs, pMHC multimer staining); type: cell-based, human; settings: for Wells positive [%]: HLA-A*02 restricted peptides, positive wells among evaluable
Text: In order to obtain information regarding the immunogenicity of the TUMAPs of the present invention, the inventors performed investigations using an in vitro T-cell priming assay based on repeated stimulations of CD8+ T cells with artificial antigen presenting cells (aAPCs) loaded with peptide/MHC complexes and anti-CD28 antibody.
In order to perform in vitro stimulations by artificial antigen presenting cells loaded with peptide-MHC complex (pMHC) and anti-CD28 antibody, the inventors first isolated CD8+ T cells from fresh HLA-A*02 leukapheresis products via positive selection using CD8 microbeads (Miltenyi Biotec, Bergisch-Gladbach, Germany) of healthy donors obtained from the University clinics Mannheim, Germany, after informed consent.
PBMCs and isolated CD8+ lymphocytes were incubated in T-cell medium (TCM) until use consisting of RPMI-Glutamax (Invitrogen, Karlsruhe, Germany) supplemented with 10% heat inactivated human AB serum (PAN-Biotech, Aidenbach, Germany), 100 U/ml Penicillin/100 μg/ml Streptomycin (Cambrex, Cologne, Germany), 1 mM sodium pyruvate (CC Pro, Oberdorla, Germany), 20 μg/ml Gentamycin (Cambrex). 2.5 ng/ml IL-7 (PromoCell, Heidelberg, Germany) and 10 U/ml IL-2 (Novartis Pharma, Nürnberg, Germany) were also added to the TCM at this step.
Generation of pMHC/anti-CD28 coated beads, T-cell stimulations and readout was performed in a highly defined in vitro system using four different pMHC molecules per stimulation condition and 8 different pMHC molecules per readout condition.
The purified co-stimulatory mouse IgG2a anti human CD28 Ab 9.3 (Jung et al., 1987) was chemically biotinylated using Sulfo-N-hydroxysuccinimidobiotin as recommended by the manufacturer (Perbio, Bonn, Germany). Beads used were 5.6 μm diameter streptavidin coated polystyrene particles (Bangs Laboratories, Illinois, USA).
pMHC used for positive and negative control stimulations were A*0201/MLA-001 (peptide […] (SEQ ID NO. 664) from modified Melan-A/MART-1) and A*0201/DDX5-001 ([…] from DDX5, SEQ ID NO. 665), respectively.
800,000 beads/200 μl were coated in 96-well plates in the presence of 4×12.5 ng different biotin-pMHC, washed and 600 ng biotin anti-CD28 were added subsequently in a volume of 200 μl. Stimulations were initiated in 96-well plates by co-incubating […] CD8+ T cells with 2×10^5 washed coated beads in 200 μl TCM supplemented with 5 ng/ml IL-12 (PromoCell) for 3 days at 37° C. Half of the medium was then exchanged by fresh TCM supplemented with 80 U/ml IL-2 and incubating was continued for 4 days at 37° C. This stimulation cycle was performed for a total of three times. For the pMHC multimer readout using 8 different pMHC molecules per condition, a two-dimensional combinatorial coding approach was used as previously described (Andersen et al., 2012) with minor modifications encompassing coupling to 5 different fluorochromes. Finally, multimeric analyses were performed by staining the cells with Live/dead near IR dye (Invitrogen, Karlsruhe, Germany), CD8-FITC antibody clone SK1 (BD, Heidelberg, Germany) and fluorescent pMHC multimers. For analysis, a BD LSRII SORP cytometer equipped with appropriate lasers and filters was used. Peptide specific cells were calculated as percentage of total CD8+ cells. Evaluation of multimeric analysis was done using the FlowJo software (Tree Star, Oreg., USA). In vitro priming of specific multimer+ CD8+ lymphocytes was detected by comparing to negative control stimulations.
Exemplary flow cytometry results after TUMAP-specific multimer staining for two peptides of the invention are shown in FIG. 3 together with corresponding negative controls.

Substance | Peptide exchange (HLA-A*02:01) | Wells positive [%] (CD8+ T cells) | in vitro immunogenicity: donors (CD8+ T cells; percentage of positive donors)
166 (YLNHLEPPV; listed as Homo sapiens) [compound 166] | “+++” (≥50 = +++) | “++++” (>=70% = ++++) | 
384 (ILFANPNIFV; listed as Homo sapiens) [compound 384] | “+++” (≥50 = +++) | “+” (<20% = +) | 
3 (SLASKLTTL; listed as Homo sapiens) [compound 3] | “++++” (≥75% = ++++) | “+” (<20% = +) | 
56 (KLYEGIPVLL; listed as Homo sapiens) [compound 56] | “++++” (≥75% = ++++) | “+” (<20% = +) | 
79 (SLFIGEKAVLL; listed as Homo sapiens) [compound 79] | “+++” (≥50 = +++) | “+” (<20% = +) | 
247 (VLLPNDLLEKV; listed as Homo sapiens) [compound 247] | “+++” (≥50 = +++) | “+” (<20% = +) | 
150 (RLWEEGEELEL; listed as Homo sapiens) [compound 150] | “+++” (≥50 = +++) | “+” (<20% = +) | 
141 (YLDFSNNRL; listed as Homo sapiens) [compound 141] | “++” (≥20% = ++) | “+” (<20% = +) | 
143 (LLLDITPEI; listed as Homo sapiens) [compound 143] | “++++” (≥75% = ++++) | “+” (<20% = +) | 
2 (SLLEADPFL; listed as Homo sapiens) [compound 2] | “+++” (≥50 = +++) | “+” (<20% = +) | 
460 (AMLEKNYKL; listed as Homo sapiens) [compound 460] | “++++” (≥75% = ++++) | “+” (<20% = +) | 
443 (GLWEIENNPTV; listed as Homo sapiens) [compound 443] | “+++” (≥50 = +++) | “+” (<20% = +) | 
48 (ALAELYEDEV; listed as Homo sapiens) [compound 48] | “+++” (≥50 = +++) | “+” (<20% = +) | 
8 (FTLGNVVGMYL; listed as Homo sapiens) [compound 8] | “++++” (≥75% = ++++) | “+” (<20% = +) | 
319 (SLEPQIQPV; listed as Homo sapiens) [compound 319] | “++” (≥20% = ++) | “+” (<20% = +) | 
489 (KMWEELPEVV; listed as Homo sapiens) [compound 489] | “+++” (≥50 = +++) | “+” (<20% = +) | 
11 (KIFEMLEGV; listed as Homo sapiens) [compound 11] | “+++” (≥50 = +++) | “+” (<20% = +) | 
113 (GLLPTPLFGV; listed as Homo sapiens) [compound 113] | “+++” (≥50 = +++) | “+” (<20% = +) | 
652 (TLWYRAPEV; listed as Homo sapiens) [compound 652] |  |  | ++++ (>=70% = ++++)
38 (FLLEDDIHVS; listed as Homo sapiens) [compound 38] | “+++” (≥50 = +++) | “+” (<20% = +) | 
499 (KIFDIDEAEEGV; listed as Homo sapiens) [compound 499] | “++” (≥20% = ++) | “+” (<20% = +) | 
60 (SLTIDGIYYV; listed as Homo sapiens) [compound 60] | “++++” (≥75% = ++++) | “++++” (>=70% = ++++) | 
199 (ALQDVPLSSV; listed as Homo sapiens) [compound 199] | “+++” (≥50 = +++) | “+” (<20% = +) | 
511 (FLDPYCSASV; listed as Homo sapiens) [compound 511] | “++” (≥20% = ++) | “+” (<20% = +) | 
36 (YVLEDLEVTV; listed as Homo sapiens) [compound 36] | “++” (≥20% = ++) | “+” (<20% = +) | 
603 (FLIEPEHVNTV; listed as Homo sapiens) [compound 603] | “++” (≥20% = ++) | “+” (<20% = +) | 
118 (KLIDNNINV; listed as Homo sapiens) [compound 118] | “+++” (≥50 = +++) | “+” (<20% = +) | 
